Laboratory results from ChEMBL document CHEMBL6087402, “Design, synthesis, and in vitro and in vivo biological evaluation of dihydroartemisinin derivatives as potent anti-cancer agents with ferroptosis-inducing and apoptosis-activating properties” (Eur J Med Chem, 2025).
Active and inactive are the calls of the source. The calls are words filed in the database; no cut-off is given here. Peptide text beside a SMILES is read from it. * marks the point of attachment. Cbz = O=C(OCc1ccccc1)*; CH2F = FC*

What was measured:
[1] = test system: HCT-116; experiment: Cytotoxicity against human HCT-116 cells assessed as cell viability upto 20 uM; type: functional, cell-based
[2] = test system: A549; experiment: Anti-proliferative activity against human A549 cells incubated for 72 hrs by MTT assay; type: functional, cell-based; conditions: A549, 72 h
[3] = Selectivity index, ratio of IC50 for human L02 cells to IC50 for human A549 cells; type: toxicity; conditions: L02 cells versus A549 cells, read-out: Ratio IC50
[4] = Selectivity index, ratio of IC50 for human L02 cells to IC50 for human HCT-116 cells; type: toxicity; conditions: L02 cells versus HCT-116 cells, read-out: Ratio IC50
[5] = Anti-proliferative activity against human L02 cells incubated for 72 hrs by MTT assay; type: toxicity, cell-based
[6] = Selectivity index, ratio of IC50 for human L02 cells to IC50 for human Bel-7402 cells; type: toxicity; conditions: L02 cells versus Bel-7402 cells, read-out: Ratio IC50
[7] = test system: SW-620; experiment: Anti-proliferative activity against human SW620 cells incubated for 72 hrs by MTT assay; type: functional, cell-based; conditions: SW-620, 72 h
[8] = test system: Bel-7402; experiment: Anti-proliferative activity against human Bel-7402 cells incubated for 72 hrs by MTT assay; type: functional, cell-based; conditions: Bel-7402, 72 h
[9] = test system: HCT-116; experiment: Anti-proliferative activity against human HCT-116 cells incubated for 72 hrs by MTT assay; type: functional, cell-based; conditions: HCT-116, 72 h
[10] = Selectivity index, ratio of IC50 for human L02 cells to IC50 for human SW620 cells; type: toxicity; conditions: L02 cells versus SW620 cells, read-out: Ratio IC50
[11] = test system: HCT-116; experiment: Cytotoxicity against human HCT-116 cells assessed as cell viability at 10 uM; type: functional, cell-based
[12] = test system: HCT-116; experiment: Cytotoxicity against human HCT-116 cells assessed as cell viability at 5 uM; type: functional, cell-based
[13] = test system: HCT-116; experiment: Inhibition of cell proliferation in human HCT-116 cells at 3 uM incubated for 12 hrs by EdU assay (reference value: 48.14 %); type: functional

Structure (SMILES) | Activity [1] | IC50 [2] [µM] | selectivity ratio [3] | selectivity ratio [4] | IC50 at 72 h [5] [µM] | selectivity ratio [6] | IC50 [7] [µM] | IC50 [8] [µM] | IC50 [9] [µM] | selectivity ratio [10] | Activity [11] | Activity [12] | inhibition at 3 µM [13] [%]
CC(C)[C@H](NC(=O)OCc1ccccc1)C(=O)N[C@@H](C)C(=O)N[C@@H](CC(=O)O)C(=O)CF (Cbz-Val-Ala-Asp-CH2F) | inactive |  |  |  |  |  |  |  |  |  |  |  | 
C[C@@H]1CC[C@H]2[C@@H](C)C(OC(=O)Nc3ccccc3)O[C@@H]3O[C@@]4(C)CC[C@H]1[C@]32OO4 (stereo partly specified) |  | 4.18 | 3.2 | 18.6 | 13.4 | 2.9 | 1.34 | 4.62 | 0.72 | 9.99 |  |  | 
CCOC(=O)c1ccc(NC2CCCCC2)c(N)c1 |  |  |  |  |  |  |  |  |  |  | inactive |  | 
Cc1ccc(NC(=O)OC2O[C@@H]3O[C@@]4(C)CC[C@@H]5[C@H](C)CC[C@@H]([C@H]2C)[C@@]35OO4)cc1 (stereo partly specified) |  | 2 | 7.82 | 26.5 | 15.6 | 1.93 | 0.79 | 8.1 | 0.59 | 19.8 |  |  | 
CC(=O)N(O)CCCCCNC(=O)CCC(=O)N(O)CCCCCNC(=O)CCC(=O)N(O)CCCCCN |  |  |  |  |  |  |  |  |  |  |  | inactive | 
COc1ccc(NC(=O)OC2O[C@@H]3O[C@@]4(C)CC[C@@H]5[C@H](C)CC[C@@H]([C@H]2C)[C@@]35OO4)cc1 (stereo partly specified) |  | 5.8 | 6.38 | 40.2 | 37 | 4.46 | 1.06 | 8.3 | 0.92 | 34.9 |  |  | 
C[C@H]1[C@@H](O)O[C@@H]2O[C@@]3(C)CC[C@H]4[C@H](C)CC[C@@H]1[C@@]24OO3 [ARTENIMOL] |  | 19.4 | 0.43 | 1.65 | 8.43 | 0.2 | 6.61 | 43.2 | 5.1 | 1.28 |  |  | 24.5
C[C@@H]1CC[C@H]2[C@@H](C)C(OC(=O)Nc3ccc(F)cc3)O[C@@H]3O[C@@]4(C)CC[C@H]1[C@]32OO4 (stereo partly specified) |  | 3.2 | 2.85 | 17.9 | 9.13 | 1.05 | 1.01 | 8.7 | 0.51 | 9.04 |  |  | 
CCCNC(=O)OC1O[C@@H]2O[C@@]3(C)CC[C@@H]4[C@H](C)CC[C@@H]([C@H]1C)[C@@]24OO3 (stereo partly specified) |  | > 10 | 13.6 | 25.8 | 12.1 | < 1.21 | > 10 | > 10 | > 10 | 2.78 |  |  | 
C[C@@H]1CC[C@H]2[C@@H](C)C(OC(=O)c3ccc4ncccc4c3)O[C@@H]3O[C@@]4(C)CC[C@H]1[C@]32OO4 (stereo partly specified) |  | > 10 |  |  |  |  | 3.02 | > 10 | 3.22 |  |  |  | 
COc1ccc(-n2cc(C(=O)OC3O[C@@H]4O[C@@]5(C)CC[C@@H]6[C@H](C)CC[C@@H]([C@H]3C)[C@@]46OO5)nn2)cc1 (stereo partly specified) |  | > 10 |  |  |  |  | 8.4 | 8.7 | 3.18 |  |  |  | 
C[C@@H]1CC[C@H]2[C@@H](C)C(OC(=O)CCc3nc(-c4ccc(F)cc4)no3)O[C@@H]3O[C@@]4(C)CC[C@H]1[C@]32OO4 (stereo partly specified) |  | 6.55 |  |  |  |  | 7.17 | 5.07 | 2.94 |  |  |  | 
CCCCNC(=O)OC1O[C@@H]2O[C@@]3(C)CC[C@@H]4[C@H](C)CC[C@@H]([C@H]1C)[C@@]24OO3 (stereo partly specified) |  | > 10 |  |  |  |  | > 10 | > 10 | 3.51 |  |  |  | 
C[C@@H]1CC[C@H]2[C@@H](C)C(OC(=O)c3ccc(Cn4ccc5ccc(F)cc54)cc3)O[C@@H]3O[C@@]4(C)CC[C@H]1[C@]32OO4 (stereo partly specified) |  | 0.89 |  |  |  |  | 4.36 | > 10 | 0.47 |  |  |  | 
C[C@@H]1CC[C@H]2[C@@H](C)C(OC(=O)CCC(=O)OCc3cn(-c4ccc(Cl)cc4)nn3)O[C@@H]3O[C@@]4(C)CC[C@H]1[C@]32OO4 (stereo partly specified) |  | > 10 |  |  |  |  | 1.1 | > 10 | 3.03 |  |  |  | 
C[C@@H]1CC[C@H]2[C@@H](C)C(OC(=O)c3cccc4ncccc34)O[C@@H]3O[C@@]4(C)CC[C@H]1[C@]32OO4 (stereo partly specified) |  | > 10 |  |  |  |  | 3.01 | > 10 | 3.73 |  |  |  | 
